Results from article PMC10349806 (Nature Communications, 2023).
Values joined by “and” are separate entries in the source; they are usually repeats but may differ in a detail not shown here. Identical values can stand only once.

Experiments:
[1] = tested on: PfCRT variant E207R; assay: CQ uptake assay, oocytes expressing E207R; format: cell-based, Plasmodium falciparum
Experimental: (§1) Site-directed mutagenesis of PfCRT^Dd2 was performed as described using the megaprimer method with overlap extension[21],[54]. The primer pairs used are listed in Supplementary Table 6. Please note that a codon-optimized and oocyte-adapted version of PfCRT^Dd2 was used[22] (Supplementary Fig. 16). The resulting DNA fragment was cloned into the SP64T expression vector and verified by sequencing.
(§2) Oocytes were obtained as described previously. Briefly, adult (>2 years old) female X. laevis frogs (NASCO) were anesthetized in a cooled solution of ethyl 3-amino benzoate methanesulfonate (0.1%, w/v), followed by a surgical removal of parts of the ovary. The ovary lobes were carefully dissected and small pieces of oocytes were incubated in Ca^2+-free ND96 buffer (96 mM NaCl, 2 mM KCl, 1 mM MgCl2 buffered with 5 mM HEPES/NaOH, pH 7.5) supplemented with collagenase D (0.1%, w/v; Roche), BSA (0.5%, w/v), and 9 mm Na2HPO4 at 18 °C for 14-16 h while gentle shaking. After incubation, the oocytes were carefully washed several times with ND96 buffer (96 mM NaCl, 2 mM KCl, 1.8 mM CaCl2, 1 mM MgCl2 buffered with 5 mM HEPES/NaOH, pH 7.5) supplemented with 100 mg l^−1 gentamycin). Defolliculated and healthy-looking stage V-VI oocytes were manually selected for RNA microinjection. The RNA was generated as following: The codon-optimized sequences of PfCRT variants were cloned into the pSP64T expression vector. After vector linearization using the restriction endonucleases BamHI or SalI (New England Biolabs), transcription was performed using the in vitro SP6 mMessage mMachine Kit (Ambion)[34]. The obtained RNA was kept at −80 °C and diluted with nuclease-free water to a concentration of 0.6 μg μl^−1. Precision-bore glass capillary tubes (3.5-inch glass capillaries; Drummond Scientific Co.) were pulled on a vertical puller (P-87 Flaming/Brown micropipette puller, Sutter Instrument Co.), graduated, and placed on a microinjector (Nanoject II Auto-Nanoliter Injector, Drummond Scientific Co.). 50 nl of nuclease-free water alone (control oocytes) or 50 nl of 0.6 μg μl^−1 RNA were injected under stereomicroscopic control. Injected oocytes were incubated for 46–72 h at 18 °C with twice-daily buffer changes before usage in experiments.
(§3) Drug uptake assays were performed as described previously[21],[22],[24],[34]. […] The direction of radio-labeled drug transport is here from the mostly acidic extracellular solution (pH 4.5 or 6.0, as indicated) into the oocyte cytosol (pH ∼ 7.2), which corresponds to the efflux of drug from the acidic digestive vacuole (pH 5.2) into the parasite cytoplasm (pH 7.2). The topology of PfCRT in the oolemma is such that both the N- and C-terminus face the extracellular milieu[3],[22]. In the parasite, the N- and C-terminus face the lumen of the digestive vacuole. CQ uptake kinetics were performed by incubating oocytes in ND96 buffer adjusted to a pH of 4.5, 5.0, 5.5, or 6.0 and supplemented with 50 nM [^3H]CQ and one of 7 different CQ concentrations (10 µM, 50 µM, 100 µM, 200 µM, 300 µM, 400 µM, 500 µM CQ). The reaction was stopped at the 60 min time point, which is in the linear uptake range[22],[34] (Supplementary Fig. 17). For determination of the amount of drug uptake for each oocyte, the reaction medium was removed and the oocytes were washed three times with 2 ml of ice-cold ND96 buffer. Each oocyte was individually transferred to a scintillation vial containing 5% sodium dodecyl sulfate (200 μl) for lysis. The radioactivity of each sample was measured using a liquid scintillation analyzer Tri-Carb 4910 TR (PerkinElmer). Oocytes that were injected with water instead of RNA were analyzed in parallel, representing the uptake of a drug by diffusion and/or endogenous permeation pathways. The resulting value represents the “background“ level of drug accumulation in oocytes (in-depth discussion in[22]). […]

[2] = tested on: PfCRT variant Y177A; assay: CQ uptake assay, oocytes expressing Y177A; format: cell-based, Plasmodium falciparum
Experimental: as §1, §2
(§4) Drug uptake assays were performed as described previously[21],[22],[24],[34]. […] The direction of radio-labeled drug transport is here from the mostly acidic extracellular solution (pH 4.5 or 6.0, as indicated) into the oocyte cytosol (pH ∼ 7.2), which corresponds to the efflux of drug from the acidic digestive vacuole (pH 5.2) into the parasite cytoplasm (pH 7.2). The topology of PfCRT in the oolemma is such that both the N- and C-terminus face the extracellular milieu[3],[22]. In the parasite, the N- and C-terminus face the lumen of the digestive vacuole. CQ uptake kinetics were performed by incubating oocytes in ND96 buffer adjusted to a pH of 4.5, 5.0, 5.5, or 6.0 and supplemented with 50 nM [^3H]CQ and one of 7 different CQ concentrations (10 µM, 50 µM, 100 µM, 200 µM, 300 µM, 400 µM, 500 µM CQ). The reaction was stopped at the 60 min time point, which is in the linear uptake range[22],[34] (Supplementary Fig. 17). […] The radioactivity of each sample was measured using a liquid scintillation analyzer Tri-Carb 4910 TR (PerkinElmer). Oocytes that were injected with water instead of RNA were analyzed in parallel, representing the uptake of a drug by diffusion and/or endogenous permeation pathways. […]

[3] = tested on: PfCRT variant E121A; assay: CQ uptake assay, oocytes expressing E121A; format: cell-based, Plasmodium falciparum
Experimental: as §1, §2, §4

[4] = tested on: PfCRT variant F319A; assay: CQ uptake assay, oocytes expressing F319A; format: cell-based, Plasmodium falciparum
Experimental: as §1, §2, §4

[5] = tested on: PfCRT variant E207C; assay: CQ uptake assay, oocytes expressing E207C; format: cell-based, Plasmodium falciparum
Experimental: as §1, §2, §3

[6] = target: T1, PfCRT variant F291A (Plasmodium falciparum, UniProt Q9N623, A220S/F291A/I356T/K76T/M74I/N326S/N75E/Q271E/R371I); assay: CQ uptake assay, oocytes expressing F291A; format: cell-based
T1 sequence (Q9N623 1-424 M74I/N75E/K76T/A220S/Q271E/F291A/N326S/I356T/R371I): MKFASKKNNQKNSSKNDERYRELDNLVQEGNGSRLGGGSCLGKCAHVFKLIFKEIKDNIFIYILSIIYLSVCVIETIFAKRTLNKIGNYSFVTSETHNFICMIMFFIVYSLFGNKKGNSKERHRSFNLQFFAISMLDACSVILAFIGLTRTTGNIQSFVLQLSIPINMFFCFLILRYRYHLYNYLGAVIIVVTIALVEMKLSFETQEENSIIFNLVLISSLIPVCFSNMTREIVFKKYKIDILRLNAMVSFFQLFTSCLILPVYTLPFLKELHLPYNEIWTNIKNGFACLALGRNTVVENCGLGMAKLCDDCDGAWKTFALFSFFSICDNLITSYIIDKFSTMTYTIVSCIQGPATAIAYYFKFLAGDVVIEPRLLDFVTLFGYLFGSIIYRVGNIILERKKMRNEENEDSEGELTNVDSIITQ
Experimental: as §1, §2, §4

[7] = E207R, 50 µM CQ, 1 h, mean ± SEM
[8] = pH 4.5, individual replicates, Fig 6b
[9] = pH 6.0, individual replicates, Fig 6b
[10] = ratio of activity pH 4.5 / pH 6.0
[11] = Y177A, 50 µM CQ, 1 h, mean ± SEM
[12] = pH 4.5, single replicates, Fig 1d left
[13] = pH 6.0, single replicates, Fig 1d left
[14] = E121A, 50 µM CQ, 1 h, mean ± SEM
[15] = F319A, 50 µM CQ, 1 h, mean ± SEM
[16] = E207C, 50 µM CQ, 1 h, mean ± SEM
[17] = F291A, 50 µM CQ, 1 h, mean ± SEM

CCN(CC)CCCC(C)Nc1ccnc2cc(Cl)ccc12 (centres unmarked) [CQ, chloroquine]
Activity at pH 4.5 [1, 7]: 2.23 ± 0.16 pmol h-1 oocyte-1 | Activity at pH 6.0 [1, 7]: 2.69 ± 0.23 pmol h-1 oocyte-1 | R-value ([1]; E207R, CQ transport at pH 4.5 / pH 6.0): 0.84 ± 0.04 | E207R transport activity pH 4.5 [1, 8]: 2.49 pmol oocyte-1 h-1 and 2.35 pmol oocyte-1 h-1 and 1.85 pmol oocyte-1 h-1 | E207R transport activity pH 6.0 [1, 9]: 3.24 pmol oocyte-1 h-1 and 2.53 pmol oocyte-1 h-1 and 2.29 pmol oocyte-1 h-1 | E207RR-value [1, 10]: 0.77 and 0.93 and 0.81 | Activity at pH 4.5 [2, 11]: 1.25 ± 0.21 pmol h-1 oocyte-1 | Activity at pH 6.0 [2, 11]: 2.94 ± 0.26 pmol h-1 oocyte-1 | R-value ([2]; Y177A, CQ transport at pH 4.5 / pH 6.0): 0.44 ± 0.11 | Y177A transport activity pH 4.5 [2, 12]: 0.79 pmol oocyte-1 h-1 and 1.73 pmol oocyte-1 h-1 and 1.60 pmol oocyte-1 h-1 and 0.87 pmol oocyte-1 h-1 | Y177A transport activity pH 6.0 [2, 13]: 2.11 pmol oocyte-1 h-1 and 3.29 pmol oocyte-1 h-1 and 2.90 pmol oocyte-1 h-1 and 3.47 pmol oocyte-1 h-1 | Activity at pH 4.5 [3, 14]: 1.35 ± 0.09 pmol h-1 oocyte-1 | Activity at pH 6.0 [3, 14]: 3.95 ± 0.82 pmol h-1 oocyte-1 | R-value ([3]; E121A, CQ transport at pH 4.5 / pH 6.0): 0.43 ± 0.06 | E121A transport activity pH 4.5 [3, 12]: 1.13 pmol oocyte-1 h-1 and 1.51 pmol oocyte-1 h-1 and 1.41 pmol oocyte-1 h-1 | E121A transport activity pH 6.0 [3, 13]: 5.74 pmol oocyte-1 h-1 and 2.27 pmol oocyte-1 h-1 and 3.83 pmol oocyte-1 h-1 | Activity at pH 4.5 [4, 15]: 0.90 ± 0.25 pmol h-1 oocyte-1 | Activity at pH 6.0 [4, 15]: 3.64 ± 0.45 pmol h-1 oocyte-1 | R-value ([4]; F319A, CQ transport at pH 4.5 / pH 6.0): 0.26 ± 0.07 | F319A transport activity pH 4.5 [4, 12]: 0.43 pmol oocyte-1 h-1 and 1.48 pmol oocyte-1 h-1 and 0.80 pmol oocyte-1 h-1 | F319A transport activity pH 6.0 [4, 13]: 4.19 pmol oocyte-1 h-1 and 3.55 pmol oocyte-1 h-1 and 3.19 pmol oocyte-1 h-1 | Activity at pH 4.5 [5, 16]: 1.30 ± 0.11 pmol h-1 oocyte-1 | Activity at pH 6.0 [5, 16]: 1.53 ± 0.16 pmol h-1 oocyte-1 | R-value ([5]; E207C, CQ transport at pH 4.5 / pH 6.0): 0.86 ± 0.09 | E207C transport activity pH 4.5 [5, 8]: 0.95 pmol oocyte-1 h-1 and 1.34 pmol oocyte-1 h-1 and 1.57 pmol oocyte-1 h-1 and 1.33 pmol oocyte-1 h-1 | E207C transport activity pH 6.0 [5, 9]: 1.15 pmol oocyte-1 h-1 and 2.00 pmol oocyte-1 h-1 and 1.64 pmol oocyte-1 h-1 and 1.34 pmol oocyte-1 h-1 | E207C R-value [5, 10]: 0.83 and 0.67 and 0.96 and 0.99 | Activity at pH 4.5 [6, 17]: 1.61 ± 0.31 pmol h-1 oocyte-1 | Activity at pH 6.0 [6, 17]: 3.23 ± 0.24 pmol h-1 oocyte-1 | R-value ([6]; F291A, CQ transport at pH 4.5 / pH 6.0): 0.52 ± 0.11 | F291A transport activity pH 4.5 [6, 12]: 1.94 pmol oocyte-1 h-1 and 2.47 pmol oocyte-1 h-1 and 0.96 pmol oocyte-1 h-1 and 1.07 pmol oocyte-1 h-1 | F291A transport activity pH 6.0 [6, 13]: 2.78 pmol oocyte-1 h-1 and 3.29 pmol oocyte-1 h-1 and 4.00 pmol oocyte-1 h-1 and 2.84 pmol oocyte-1 h-1
